Measured values as given in patent US8497298B2, “Use of benzo-fused heterocycle sulfamide derivatives for lowering lipids and lowering blood glucose levels” (Janssen Pharmaceutica NV, priority 2005, dated 2013).

Assays:
[1] = test system: Zucker diabetic fatty (ZDF Gmi-fa/fa) rats; assay: Zucker Diabetic Fatty Rats Assay, Study B: basal glucose and Day 8 plasma parameters (Example 15); format: in vivo, rat; settings: for Basal glucose levels Day 4: Day 4, 2 hour fasted; for Basal glucose levels Day 4 / Basal glucose levels Day 6 / Basal glucose levels Day 0: in mg/dL; for Basal glucose levels Day 6: Day 6, 2 hour fasted; for Cholesterol / HDL / Insulin / Ratio (Triglyceride to HDL) / Triglyceride: Day 8 plasma; for Basal glucose levels Day 0: female ZDF rats
Description: (§1) Compound #8 was suspended in 0.5% Methocel using a hand held homogenizer to reduce the particle size and a magnetic stir bar and stir plate to keep the particles homogeneously suspended throughout the dosing period. 0.5% Hydroxypropyl Methylcellulose (Methocel) used as vehicle/control. Compound #8 was tested in both diabetic models of mouse and rat.
In this study, female Zucker diabetic fatty (ZDF Gmi-fa/fa) rats were selected for glucose lowering effect and oral glucose tolerance test (OGTT) studies. ZDF rats from (Charles River Laboratories, Wilmington, Mass.) at 7 weeks of age were individually housed and fed with C13004 diet (obtained from Research Diets, New Brunswick, N.J.). All of the rats were quarantined for a period of one week before transfer to the animal procedure room. A drop of blood (about 2 microliters) was collected by tail puncture and glucose concentration was detected with a glucometer (OneTouch UltraSmart, Lifescan, Milpitas, Calif.).
ZDF rats at 8 weeks of age were randomized into four treatment groups based on glucose values (first criterion, average of 150 mg/dL) and body weight (second criterion, average of 240 g). 32 rats were allocated into 4 treatment groups of 8 rats each. The four groups were then treated with 0.5% Methocel (vehicle), 10 mg/kg Compound #8, 30 mg/kg Compound #8, and 100 mg/kg Compound #8 in vehicle, respectively.
The rats were orally gavaged once daily (at 1500-1700 hour) with vehicle control (0.5% Methocel, pH7.4) or vehicle containing Compound #8 for 7 days. The dosing volume was 5 mL/kg body weight (1.2 mL for 250 gram rat). The rats were fed ad lib throughout the study.
Basal glucose levels after treatments were measured on Day 4 and Day 6 in 2 hour fasted rats with a glucometer (OneTouch UltraSmart, Lifescan, Milpitas, Calif.) after collecting two microliters of blood through tail puncture. Oral Glucose Tolerance Test (OGTT) was performed on Day 7 in 4 hour-fasted rats. Two hours after being dosed with Compound #8 or vehicle, the rats were gavaged with a 2g/kg of 50% glucose solution right after basal glucose levels measurement (0 minute). Blood glucose levels were then measured at 30, 60, 90 and 120 minutes through tail puncture.
On Day 8, rats were anaesthetized with sodium pentobarbital (1 ml/kg, intraperitoneal [i.p.] injection, SleepAway, Fort Dodge, Iowa) and blood was drawn via cardiac puncture using 3 mL syringe and collected into heparinized tubes. Plasma samples were obtained by centrifuging whole blood at 2000˜3000 g for 10˜20 minutes at 4° C. and stored at −20° C. for further measurement of insulin, HDL, total cholesterol and triglyceride.
Plasma insulin concentrations were measured by in both studies using the appropriate rat/mouse insulin enzyme-linked immunosorbent assay (ELISA) kit (EZRMI-13K, LINCO Research, St. Charles, Mo.). Blood samples were diluted 1:4 in charcoal stripped mouse serum that was included in the ELISA kit. The rest of the procedure followed the manufacturers instruction. The total fluorescence was detected using an Orion 1 Microplate Luminometer (Berthold Detection Systems, Pforzheim, Germany).
Plasma total cholesterol, high density lipoprotein (HDL), low density lipoprotein (LDL) and triglyceride concentrations were measured by using a Bayer ADVIA 1650 blood chemistry analyzer (Bayer HealthCare LLC, Diagnostic Division, Tarrytown, N.Y.). According to manufacturers protocol, cholesterol measurement was an enzymatic method utilizing cholesterol esterase and cholesterol oxidase conversion followed by a Trinder endpoint; Elimination/catalase method was used for HDL measurement; an enzymatic method with a Trinder endpoint was used for triglyceride measurement.
Data from this study was analyzed using the standard two-tailed Student's t-test and are expressed below as means and standard errors.

[2] = test system: Zucker diabetic fatty (ZDF Gmi-fa/fa) rats; assay: Zucker Diabetic Fatty Rats Assay with 29 day wash-out (Example 16); format: in vivo, rat; settings: for Blood Glucose Level Day 0: Day 0 (baseline), ad lib fed; for Blood Glucose Level Day 36: then 29 days wash-out
Description: as §1
In this study, female Zucker diabetic fatty (ZDF Gmi-fa/fa) rats were selected for glucose lowering effect. ZDF rats from (Charles River Laboratories, Wilmington, Mass.) at 7 weeks of age were individually housed and fed with C13004 diet (obtained from Research Diets, New Brunswick, N.J.). All of the rats were quarantined for a period of one week before transfer to the animal procedure room. A drop of blood (about 2 microliters) was collected by tail puncture and glucose concentration was detected with a glucometer (OneTouch UltraSmart, Lifescan, Milpitas, Calif.).
ZDF rats at 8 weeks of age were randomized into four treatment groups based on glucose values (first criterion, average of 150 mg/dL) and body weight (second criterion, average of 240 g). 13 rats were allocated into 4 treatment groups of 3 rats each for Compound #8 treated groups and 4 rats for the non-treated group. The three groups were then treated with 10 mg/kg Compound #8, 30 mg/kg Compound #8, and 100 mg/kg Compound #8 in 0.5 methylcellulose, respectively.
The rats were orally gavaged once daily (at 1500-1700 hour) with vehicle control (0.5% Methocel, pH7.4) or vehicle containing Compound #8 for 7 days. The dosing volume was 5 mL/kg body weight (1.2 mL for 250 gram rat). The rats were fed ad lib throughout the study. The rats were then allowed 29 days of wash-out period, where no dosing was administered.
Basal glucose levels after treatments were measured on Day 0 (baseline) and Day 36 (after 7 days dosing and 29 days wash-out) in ad lib fed rats with a glucometer (OneTouch UltraSmart, Lifescan, Milpitas, Calif.) after collecting two microliters of blood through tail puncture.
Data from this study was analyzed using the standard two-tailed Student's t-test and are expressed below as means and standard errors, with results as listed in Table 15 below.

## NS(=O)(=O)NC[C@H]1COc2cc(Cl)ccc2O1 [Compound #8, (2S)-(−)-N-(6-Chloro-2,3-dihydro-benzo[1,4]dioxin-2-ylmethyl)-sulfamide]
[1]; 10 mg/kg oral once daily
  Basal glucose levels Day 4: 148 ± 15
  Basal glucose levels Day 6: 190 ± 28
[1]; 10 mg/kg
  Cholesterol: 142 ± 6 mg/dL
  HDL: 36 ± 1.0 mg/dL
  Insulin: 16 ± 1.0 ng/mL
  Ratio (Triglyceride to HDL): 37 ± 3
  Triglyceride: 1323 ± 124 mg/dL
[1]; 30 mg/kg oral once daily
  Basal glucose levels Day 4: 146 ± 9
  Basal glucose levels Day 6: 151 ± 11
[1]; 30 mg/kg
  Cholesterol: 144 ± 11 mg/dL
  HDL: 36 ± 1.1 mg/dL
  Insulin: 14 ± 1.1 ng/mL
  Ratio (Triglyceride to HDL): 39 ± 7
  Triglyceride: 1383 ± 254 mg/dL
[1]; 100 mg/kg oral once daily
  Basal glucose levels Day 4: 125 ± 4
  Basal glucose levels Day 6: 134 ± 5
[1]; 100 mg/kg, Day 8
  plasma insulin decreased: 32%
  ratio of triglyceride to HDL reduced: 59%
[1]; 100 mg/kg
  Cholesterol: 134 ± 7 mg/dL
  HDL: 41 ± 2.2 mg/dL
  Insulin: 8.8 ± 1.2 ng/mL
  Ratio (Triglyceride to HDL): 19 ± 3
  Triglyceride: 776 ± 119 mg/dL
[1]; any of the groups (10, 30, 100 mg/kg)
  food intake and weight loss: No reduction in food intake reduction or weight loss
[1]; 10 mg/kg group
  Basal glucose levels Day 0: 153 ± 13
[1]; 30 mg/kg group
  Basal glucose levels Day 0: 152 ± 11
[1]; 100 mg/kg group
  Basal glucose levels Day 0: 147 ± 7
[2]; 10 mg/kg group
  Blood Glucose Level Day 0: 222 ± 20 mg/dL
[2]; 10 mg/kg oral once daily 7 days
  Blood Glucose Level Day 36: 295 ± 81 mg/dL
[2]; 30 mg/kg group
  Blood Glucose Level Day 0: 229 ± 23 mg/dL
[2]; 30 mg/kg oral once daily 7 days
  Blood Glucose Level Day 36: 247 ± 86 mg/dL
[2]; 100 mg/kg group
  Blood Glucose Level Day 0: 228 ± 18 mg/dL
[2]; 100 mg/kg oral once daily 7 days
  Blood Glucose Level Day 36: 219 ± 39 mg/dL
